How the values were obtained:
Assay type in all cases: cell-based, human
[1] = system: JEG-3 choriocarcinoma cells; experiment: HLA-G mRNA by quantitative RT-PCR after progesterone treatment
Protocol: (§1) Methods. Purified cytotrophoblasts were prepared from first trimester placental tissue by standard techniques. JEG-3 choriocarcinoma cells were cultured in RPMI-1640 medium containing 10% FCS for three days. The cells were then treated with various doses of progesterone for 24 hours. Cell lysates and conditioned media were prepared for ELISA and total RNA was extracted for PCR. The ELISA was conducted according to the invention, using the 3C/G4 and 2C/C8 anti-HLA-G monoclonal antibodies. HLA-G protein, purified by immunoaffinity columns from first trimester placental tissue, was used as standard. The sensitivity of the ELISA was 20 ng/ml and assay variation was less than 10%. Quantitative RT-PCR was performed by using specific primers for HLA-G. Results were assessed for statistical significance using one-way analysis of variance.

cytotrophoblast cells = experiment: as above
Protocol: as §1

[2] = system: cytotrophoblasts (placenta cell culture); experiment: HLA-G protein by ELISA after progesterone treatment; conditions: progesterone 100 ng and 1000 ng/ml, 24 hours
Protocol: as §1

[3] = system: JEG-3 choriocarcinoma cells; experiment: as above; conditions: progesterone doses from 10 ng/ml, 24 hours
Protocol: as §1

CC(=O)[C@H]1CC[C@H]2[C@@H]3CCC4=CC(=O)CC[C@]4(C)[C@H]3CC[C@]12C [progesterone]
HLA-G mRNA levels in JEG-3 cells ([1]; after progesterone treatment, RT-PCR): increase of HLA-G mRNA levels | HLA-G mRNA levels at 1000 ng/ml versus 10 and 100 ng/ml ([1]; progesterone 1000 ng/ml, cell type not specified in the sentence (JEG-3 and cytotrophoblast cells tested)): significantly higher HLA-G mRNA levels | HLA-G mRNA levels in cytotrophoblast cells (cytotrophoblast cells): increase of HLA-G mRNA levels | HLA-G protein in placenta cell culture [2]: significantly increased | HLA-G concentration in JEG-3 cell lysate [3]: significant increase | HLA-G concentration in JEG-3 conditioned medium [3]: significant increase
